Assay [1] has as its system rabbit eyes subject to mechanical corneal wounding. Briefly: Mechanical corneal wounding in rabbit eyes, corneal erosion area by fluorescein staining. The format is in vivo. How it is done:
Mechanical Corneal Ulcer Formation: A 6 mm corneal trephine (Grieshaber, Switzerland), preset for 50 micrometer in depth and a miniblade were used under a surgical microscope, to perform a uniform central corneal epithelial erosions, 6 mm in diameter and 50 micrometer in depth.
Rabbits were subjected to mechanical corneal wounding following the protocol discussed above. Eyes were treated by two daily ocular instillations of treatments during 3 successive days. Fluorescein staining was used to measure the corneal erosion area at twelve hours intervals starting 24 hrs post wounding and up to 72 hrs.
In addition to the time to heal parameter which is routinely assessed in wound healing studies, several publications established the importance of a new parameter, 50% reduction in wound size to serve as a robust predictor of complete wound closure. […] Results were therefore analyzed as percentage of eyes with 50% closure or higher at 24 hr post wounding (FIG. 2).
Rabbits were subjected to mechanical corneal wounding as discussed in Example 1. Eyes were treated by two daily ocular instillations of treatments during 3 successive days. Fluorescein staining was used to measure the corneal erosion area at six hours intervals.
Additional experiments were conducted using varying dosages of active agent. Rabbits were subjected to mechanical corneal wounding as described above. Eyes were treated by two daily ocular instillations of treatments during 3 successive days with 0.1 or 0.5 μg/eye/treatment of MPDY-1 alone in HOB-10 (referred to as HO/05/09) or in BSS or in combination with insulin 0.1-0.5 μg/eye/treatment. Rabbits received a total of daily dose from 0.1 μg (1 μg/ml) and up to 2 μg (20 μg/ml). Fluorescein staining was used to measure the corneal erosion area at twelve hours intervals starting 24 hrs post wounding and up to 72 hr.
Rabbits were subjected to mechanical corneal wounding as described above. […]

In assay [2] the test system is ICAM-1 expression on endothelial cells and keratinocytes; macrophages, neutrophiles and T-cells at inflammation site. Kind of assay: Anti-inflammatory effect of MPDY-1 in various in-vitro, ex-vivo and in-vivo models. An excerpt: This example discusses experiments showing the anti-inflammatory effect of MPDY-1.
Another assay concerns corneal wound in mice. Kind of assay: Alkali burning of mouse corneas with Silver Nitrate applicators. The format is in vivo. The following applies: 1 μg/ml; for wound healing compared to control (Formula 1): 3 times daily for 3 or 7 days; for inflammatory cells (lymphocytes) infiltration into the wound area / pathological angiogenesis in corneal wound area / pathological corneal swelling / corneal re-epithelialization (wounds with full epidermal closure at 7 days post wounding) / neutrophils recruitment to the corneal wound gap: three daily instillations, Formula 1 as control; for inflammatory cells (lymphocytes) infiltration into the wound area / pathological angiogenesis in corneal wound area / pathological corneal swelling / neutrophils recruitment to the corneal wound gap: 3 days; for inflammatory cells (lymphocytes) infiltration into the wound area: FIG. 31; for pathological angiogenesis in corneal wound area: FIG. 33; for pathological corneal swelling: FIG. 34; for corneal re-epithelialization (wounds with full epidermal closure at 7 days post wounding): FIG. 30; for neutrophils recruitment to the corneal wound gap: FIG. 32. How it is done: Mice were subjected to chemical alkali burn wounding (using Silver Nitrate applicators for 10 seconds). Eyes were treated by three daily ocular instillations of treatments during 7 successive days with DAP-1 1 μg/ml, DIP-1 1 μg/ml and EPIP-2 1 μg/ml or with Formula 1 as control. Percentage of wounds achieved full epidermal closure at 7 days post wounding.
FIG. 31 is a histogram showing that DAP-1 1 μg/ml and DIP-1 1 μg/ml reduce lymphocytes infiltration in corneal wound gap in mice. Mice were subjected to chemical alkali burn wounding (using Silver Nitrate applicators for 10 seconds). Eyes were treated by three daily ocular instillations of treatments during 3 successive days with DAP-1 1 μg/ml, DIP-1 1 μg/ml and EPIP-2 1 μg/ml or with Formula 1 as control. Histological H&E staining of the corneas wounded area was performed and lymphocytes infiltration was arbitrarily assessed.
FIG. 32 is a histogram showing that DAP-1 1 μg/ml and EPIP-2 1 μg/ml decrease neutrophils recruitment to the corneal wound gap in mice. Mice were subjected to chemical alkali burn wounding (using Silver Nitrate applicators for 10 seconds). Eyes were treated by three daily ocular instillations of treatments during 3 successive days with DAP-1 1 μg/ml, DIP-1 1 μg/ml and EPIP-2 1 μg/ml or with Formula 1 as control. Histological sections of […] were stained with specific neutrophil staining kit (according to manufacturer). Neutrophils were counted per fixed field ×200 and represented by arbitrary units.
Mice were subjected to chemical alkali burn wounding (using Silver Nitrate applicators for 10 seconds). Eyes were treated by three daily ocular instillations of treatments during 3 successive days with DAP-1 1 μg/ml, DIP-1 1 μg/ml and EPIP-2 1 μg/ml or with Formula 1 as control. Histological H&E staining of the corneas wounded area has been performed. Blood vessels in entire corneal area were assessed and the results are represented graphically in objective arbitrary units.
FIG. 34 is a histogram showing that DIP-1 1 μg/ml and EPIP-2 1 μg/ml decrease pathological swelling of wounded cornea in mice. Mice were subjected to chemical alkali burn wounding (using Silver Nitrate applicators for 10 seconds). Eyes were treated by three daily ocular instillations of treatments during 3 successive days with DAP-1 1 μg/ml, DIP-1 1 μg/ml and EPIP-2 1 μg/ml or with Formula 1 as control. Histological H&E staining of the corneas wounded area has been performed and corneal swelling was objectively assessed. The results are presented in arbitrary units. […]
In another experiment, Alkali burning of corneas was performed on anaesthetized mice using Silver Nitrate applicators (75% Silver nitrate, 25% Potassium nitrate, Grafco, GFCO Inc.) for 10 seconds. The eyes were irrigated immediately with 5 ml sterile saline. Eyes were treated 3 times daily for 3 or 7 days with DAP-1 1 μg/ml, DIP-1 1 μg/ml and EPIP-2 1 μg/ml or Formula 1 as control.

“Also recorded” adds a separate entry of the source. Ends that are not written are not given here. * marks the point of attachment. Myristoyl = CCCCCCCCCCCCCC(=O)*

“MPDY-1: N-myristoylated peptide defined by SEQ ID NO: 2 (Phe-Ala-Arg-Lys-Gly-Ala-Leu-Arg-Gln), PKC-α inhibitor; tested in BSS (Myristoyl-FARKGALRQ)”: the “eyes completely healed without ocular scarring (full closure) at 48 hr post wounding” value in assay [1] (48 hr, MPDY-1 0.1 or 0.5 μg/eye/treatment, two daily instillations, FIG. 11) is 30%. In addition, the “time within which all treated eyes reached full closure” value in assay [1] (post wounding, FIG. 11) was at most 72 h. For the same substance, the “closure of ocular injury at 24 h post wounding” value in assay [1] (versus Control (standard of care ocular buffer), two daily instillations, FIG. 9) came out at 60%. Also, in assay [2], the “ICAM-1 expression on endothelial cells and keratinocytes” value was “attenuate ICAM-1 expression on endothelial cells and keratinocytes”; the “activation of macrophages at inflammation site” value is “attenuate activation of macrophages at inflammation site”; the “macrophages, neutrophiles and T-cells infiltration into inflammation site” value was “inhibit macrophages, neutrophiles and T-cells infiltration into inflammation site”.

Turning to “Myristoyl-Ser-Phe-Asn-Ser-Tyr-Glu-Leu-Gly-Ser-Leu-OH (Myristoyl-SFNSYELGSL-OH; SMILES CCCCCCCCCCCCCC(=O)N[C@@H](CO)C(=O)N[C@@H](Cc1ccccc1)C(=O)N[C@@H](CC(N)=O)C(=O)N[C@@H](CO)C(=O)N[C@@H](Cc1ccc(O)cc1)C(=O)N[C@@H](CCC(=O)O)C(=O)N[C@@H](CC(C)C)C(=O)NCC(=O)N[C@@H](CO)C(=O)N[C@@H](CC(C)C)C(=O)O) [DIP-1]”, in the assay with corneal wound in mice, the “wound healing compared to control (Formula 1)” value is “wound healing enhancement”, the “inflammatory cells (lymphocytes) infiltration into the wound area” value is recorded as “excelled in reducing inflammatory cells infiltration into the wound area”, the “pathological angiogenesis in corneal wound area” value (shortened to “pathological angiogenesis”) is listed as “reduce angiogenesis in corneal wound gap” and the pathological corneal swelling result is “normalization in pathological corneal swelling”. Also, the “corneal re-epithelialization (wounds with full epidermal closure at 7 days post wounding)” value (shortened to “corneal re-epithelialization”) with corneal wound in mice is on record as “more potent; also recorded: promote re-epithelialization of corneal wound”.

As for “H-Met-Arg-Ala-Ala-Glu-Ala-Ala-Ala-Ala-Glu-Pro-Met-OH (H-MRAAEAAAAEPM-OH) [DAP-1]”, in the assay with corneal wound in mice, the “wound healing compared to control (Formula 1)” value was “wound healing enhancement”, the “inflammatory cells (lymphocytes) infiltration into the wound area” value is reported as “excelled in reducing inflammatory cells infiltration into the wound area”, the “neutrophils recruitment to the corneal wound gap” value is given as “more potent in decreasing specific neutrophils recruitment” and the “pathological angiogenesis” value is reported as “reduce angiogenesis in corneal wound gap”. For the same substance, the “corneal re-epithelialization” value in the assay on corneal wound in mice is recorded as “promote re-epithelialization of corneal wound”.

For “H-Pro-Tyr-Ile-Ala-Leu-Asn-Val-Asp-OH (H-PYIALNVD-OH) [EPIP-2]”, in the assay with corneal wound in mice, the “wound healing compared to control (Formula 1)” value is recorded as “wound healing enhancement”, the “neutrophils recruitment to the corneal wound gap” value is “more potent in decreasing specific neutrophils recruitment”, the “pathological angiogenesis” value is listed as “reduce angiogenesis in corneal wound gap” and the pathological corneal swelling entry is “normalization in pathological corneal swelling”. The “corneal re-epithelialization” value in the assay on corneal wound in mice is recorded as “promote re-epithelialization of corneal wound”.

(Values after patent US20150094260A1, “BUFFERED OPHTHALMIC COMPOSITIONS AND METHODS OF USE THEREOF” (ARAVA BIO-TECH LTD., priority 2010, published 2015).)
